A word on the pIC50: it is the negative decadic logarithm of the IC50, by convention in mol/L.

pIC50: −log10 of the molar value. Where two headings read alike, the source gives them in different places.

These results are taken from patent US11066379B2 (THE TEXAS A&M UNIVERSITY SYSTEM, priority 2018, dated 2021).

The subject of one series is SHSY5Y cells. The series is described as follows: Neuroprotective effects summarised over all five assays (viability, TMRM, ROS, GSH, mPTP). As to conditions: 0.001, 0.01 or 0.1 μM; H2O2 challenge. It is filed as cell-based, human. The method, then:
As described previously, neuroprotective agents can mediate their effects through inhibition of CypD, an isoform of CypA. […] All assays were performed at the indicated concentrations (0.001, 0.01, or 0.1 μM) based on initial cytotoxicity determined with SHSY5Y cells (Table 1).

The test system of series [1] is SH-SY5Y cells. Put plainly: Neuroprotection against H2O2 toxicity, cell viability by MTT. Type of series: cell-based, human. As to conditions: 150 μM H2O2 co-treatment 6 h; 0.01, 0.1 and 1 μM. The procedure: (§1) SH-SY5Y cells were seeded in 96-well plates at a density of 2.5×10^5 cells/mL and allowed to adhere for 24 h. At first, cells were treated only with compounds at concentrations ranging from 10-0.01 μM for 24 h to determine their possible cytotoxic effects. Experiments were carried out three times. For neuroprotective experiments, cells were treated with compounds at non-toxic concentrations (1 μM→1 nM) and 150 μM H2O2 for 6 h. Briefly, cells were washed three times with saline solution and 200 μL of MTT (500 μg/mL) dissolved in saline buffer were added to each well. Following 1 h of incubation at 37° C., the cells were disaggregated with sodium dodecyl sulphate at 5%. Absorbance of formazan crystals was measured at 595 nm with a spectrophotometer plate reader. Saponin was used as death control and its absorbance was subtracted from the other data. All experiments were performed four times.

The test system of series [2] is SH-SY5Y cells. Put plainly: Glutathione assay (Thiol Tracker Violet) after H2O2. It is filed as cell-based, human. As to conditions: 150 μM H2O2 co-treatment 6 h, two or more concentrations. The method, then:
Glutathione (GSH) levels were determined using Thiol Tracker Violet dye, which reacts with reduced thiols in cells. Reduced glutathione represents the majority of intracellular free thiols, so this probe can be used to estimate its levels in cells. Measurements were performed following manufacturer's protocol. Cells were seeded in 96-well plates at 2.5×10^5 cells/mL for 24 h and treated with compounds at various concentrations (1 μM→1 nM) and 150 μM H2O2. After 6 h, SH-SY5Y cells were washed twice with PBS and loaded with 100 μL of prewarmed Thiol Tracker Violet dye (10 μM) for 30 min at 37° C. The fluorescence was measured at 404 nm excitation and emission at 526 nm. All experiments were performed four times.

The subject of series [3] is SH-SY5Y cells. Put plainly: Cellular toxicity in SH-SY5Y cells (MTT, 24 h). To be noted: for cytotoxicity toward SH-SY5Y cells: 10-0.01 μM, in words; for pIC50: Homo sapiens, SH-SY5Y, read-out: IC50 (cellular toxicity). It is filed as cell-based.
Excerpt: The MTT (3-[4,5-dimethylthiazol-2-yl]-2,5-diphenyltetrazoliumbromide) assay was used to determine the cytotoxicity of gracilin derivatives in T lymphocytes (Burton, J. D. Methods Mol. Med., 2005, 110, 69-78) and SH-SY5Y cells and the protective effect of these compounds against H2O2 insult in neuroblastoma cells as previously described (Leiros, M., Alonso, E., Sanchez, J. A., Rateb, M. E., Ebel, R., Houssen, W. E., Jaspars, M., Alfonso, A. and Botana, L. M. ACS Chem. Neurosci., 2014, S, 71-80). Human T lymphocytes were cultured in 24 well plates at the concentration of 2.5×10^6 cells/mL and exposed to different compound concentrations (0.01, 0.1, 1 and 10 μM) added to the culture medium. Human T cells were maintained in the presence of the pure compound at 37° C. in humidified 5% CO2/95% air atmosphere for 48 h.
as §1, with “5%.” for “5%. Absorbance of formazan crystals was measured at 595 nm with a spectrophotometer plate reader. Saponin was used as death control and its absorbance was subtracted from the other data. All experiments were performed four times.”
Absorbance of formazan crystals was measured at 595 nm with a spectrophotometer plate reader. Saponin was used as death control and its absorbance was subtracted from the other data. All experiments were performed four times.

Series [4] has as its system mitochondrial membrane permeability transition pore (mPTP) in SH-SY5Y cells. The series is described as follows: Mitochondrial membrane permeability transition pore (mPTP) measurement, TBHP-induced opening. It is filed as cell-based, human. As to conditions: 1 mM TBHP. The method, then:
The blockage of mPTP by compounds was determined with the MitoProbe Transition Assay Kit following manufacturer's instructions. Briefly, SH-SY5Y human neuroblastoma cells were re-suspended in pre-warmed PBS/Ca^+2 buffer at a final concentration of 1×10^6 cells/mL. Cells were loaded with 0.01 μM Calcein-AM and incubated at 37° C. for 15 min. Then, 0.4 mM CoCl2 and compounds at selected concentrations were added and incubated for 15 min at 37° C. […] After this incubation, cells were centrifuged and re-suspended in 100 μL of PBS. Just before analyzing, 1 mM tert-butyl hydroperoxide (TBHP) was added to the samples to induce pore opening. Fluorescence intensity was measured at 488 nm excitation and 517 nm emission wavelengths by flow cytometry using the ImageStreamMKII (Amnis Corporation, Merck-Millipore) and […] software. The fluorescence of 10,000 events was analyzed with IDEASR Application vs 6.0 (Amnis Corporation, Merck-Millipore). Experiments were carried out four times.

As to `CC(=O)O[C@H]1O[C@@H](OC(C)=O)[C@@H]2CC[C@](O)(C3(C)CCCC(C)(C)C3)C[C@H]12` (stereo partly drawn) [Compound 22, (1S,3R,3aS,5R,7aR)-5-hydroxy-5-(1,3,3-trimethylcyclohexyl)octahydroisobenzo-furan-1,3-diyl diacetate], the “neuroprotective / antioxidant effects based on all five assays” value with SHSY5Y cells is “displayed significant neuroprotective effects”. Also, in the series on SH-SY5Y cells [1], the “protection of cell viability against H2O2 insult” value (“protection of cell viability” for short) is recorded as “protected cells against H2O2 insult at almost all concentrations”. The GSH levels entry with SH-SY5Y cells [2] was “recovered GSH levels”. Also, the “cytotoxicity toward SH-SY5Y cells” value with SH-SY5Y cells [3] (24 h) is given as “led to cell death at the higher concentrations tested”. Besides, in the series on SH-SY5Y cells [3] (24 h incubation), the pIC50 is 5.19. The mPTP opening result in series [4] is “prevent TBHP-induced opening”.
As for `CC(=O)O[C@@H]1OC[C@H]2C=C(C3(C)CCCCC3)CC[C@@H]12` [Compound 27a, (1S,3aS,7aR)-5-(1-methylcyclohexyl)-1,3,3a,6,7,7a-hexahydroisobenzofuran-1-yl acetate], the “neuroprotective / antioxidant effects based on all five assays” value with SHSY5Y cells is on record as “displayed significant neuroprotective effects”. The “protection of cell viability” value in the series on SH-SY5Y cells [1] is “protected cells against H2O2 insult at almost all concentrations”. Moreover, the GSH levels entry with SH-SY5Y cells [2] is on record as “recovered GSH levels”. The “cytotoxicity toward SH-SY5Y cells” value with SH-SY5Y cells [3] (24 h) is “led to cell death at the higher concentrations tested”. For the same compound, the mPTP opening result in series [4] was “prevent TBHP-induced opening”.
`CC(=O)O[C@H]1OC[C@@H]2C=C([C@@]3(C)CCCC(C)(C)C3)CC[C@H]12` [Compound 29a, (1R,3aR,7aS)-5-(1,3,3-trimethylcyclohexyl)-1,3,3a,6,7,7a-hexahydroisobenzofuran-1-yl acetate]: in the series with SHSY5Y cells, the “neuroprotective / antioxidant effects based on all five assays” value is “displayed significant neuroprotective effects”. Further, the “protection of cell viability” value with SH-SY5Y cells [1] is reported as “protected cells against H2O2 insult at almost all concentrations”. The GSH levels entry in the series with SH-SY5Y cells [2] is “recovered GSH levels”. In the series on SH-SY5Y cells [3] (24 h), the “cytotoxicity toward SH-SY5Y cells” value is reported as “led to cell death at the higher concentrations tested” and the pIC50 is 4.78. Further, the mPTP opening result in series [4] is recorded as “prevent TBHP-induced opening”.
